Results taken from PubChem BioAssay (NCI).
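Interpolation was linear, between the two tested concentrations surrounding the appropriate level; five concentrations were tested over 48 hours in 96-well plates. TGI marks complete inhibition of growth.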

Tests used:
Assay in all cases: NCI tumour cell line growth inhibition, 48 h
786-0 renal = test system: 786-0 renal
A498 renal = test system: A498 renal
A549 NSCLC = test system: A549 NSCLC
CAKI-1 renal = test system: CAKI-1 renal
CCRF-CEM leukemia = test system: CCRF-CEM leukemia
COLO 205 colon = test system: COLO 205 colon
DLD-1 colon = test system: DLD-1 colon
DMS 114 small cell lung = test system: DMS 114 small cell lung
EKVX NSCLC = test system: EKVX NSCLC
HCC-2998 colon = test system: HCC-2998 colon
HCT-116 colon = test system: HCT-116 colon
HL-60(TB) leukemia = test system: HL-60(TB) leukemia
HOP-18 NSCLC = test system: HOP-18 NSCLC
HOP-62 NSCLC = test system: HOP-62 NSCLC
IGROV1 ovarian = test system: IGROV1 ovarian
K-562 leukemia = test system: K-562 leukemia
KM12 colon = test system: KM12 colon
KM20L2 colon = test system: KM20L2 colon
LOX IMVI melanoma = test system: LOX IMVI melanoma
LXFL 529 NSCLC = test system: LXFL 529 NSCLC
M14 melanoma = test system: M14 melanoma
M19-MEL melanoma = test system: M19-MEL melanoma
MALME-3M melanoma = test system: MALME-3M melanoma
MOLT-4 leukemia = test system: MOLT-4 leukemia
NCI-H226 lung = test system: NCI-H226 lung
NCI-H23 lung = test system: NCI-H23 lung
NCI-H460 lung = test system: NCI-H460 lung
NCI-H522 lung = test system: NCI-H522 lung
OVCAR-3 ovarian = test system: OVCAR-3 ovarian
OVCAR-4 ovarian = test system: OVCAR-4 ovarian
OVCAR-5 ovarian = test system: OVCAR-5 ovarian
OVCAR-8 ovarian = test system: OVCAR-8 ovarian
RPMI-8226 leukemia = test system: RPMI-8226 leukemia
RXF 393 renal = test system: RXF 393 renal
SF-268 CNS = test system: SF-268 CNS
SF-295 CNS = test system: SF-295 CNS
SF-539 CNS = test system: SF-539 CNS
SK-MEL-2 melanoma = test system: SK-MEL-2 melanoma
SK-MEL-28 melanoma = test system: SK-MEL-28 melanoma
SK-MEL-5 melanoma = test system: SK-MEL-5 melanoma
SK-OV-3 ovarian = test system: SK-OV-3 ovarian
SN12C renal = test system: SN12C renal
SNB-19 CNS = test system: SNB-19 CNS
SNB-78 CNS = test system: SNB-78 CNS
SW-620 colon = test system: SW-620 colon
TK-10 renal = test system: TK-10 renal
U251 CNS = test system: U251 CNS
UACC-257 melanoma = test system: UACC-257 melanoma
UACC-62 melanoma = test system: UACC-62 melanoma
UO-31 renal = test system: UO-31 renal
XF 498 CNS = test system: XF 498 CNS
ACHN renal = test system: ACHN renal
DMS 273 small cell lung = test system: DMS 273 small cell lung
HCT-15 colon = test system: HCT-15 colon
HOP-92 NSCLC = test system: HOP-92 NSCLC
HT29 colon = test system: HT29 colon
RXF-631 renal = test system: RXF-631 renal
SNB-75 CNS = test system: SNB-75 CNS
SR leukemia = test system: SR leukemia

CCCCNC1=C(C(=O)OCC)/C(=N/NC(=O)c2ccccc2O)CO1
TGI (786-0 renal): > 100 µM | TGI (A498 renal): > 100 µM | TGI (A549 NSCLC): > 100 µM | TGI (CAKI-1 renal): > 100 µM | TGI (CCRF-CEM leukemia): > 100 µM | TGI (COLO 205 colon): > 100 µM | TGI (DLD-1 colon): > 100 µM | TGI (DMS 114 small cell lung): > 100 µM | TGI (EKVX NSCLC): > 100 µM | TGI (HCC-2998 colon): > 100 µM | TGI (HCT-116 colon): > 100 µM | TGI (HL-60(TB) leukemia): > 100 µM | TGI (HOP-18 NSCLC): > 100 µM | TGI (HOP-62 NSCLC): > 100 µM | TGI (IGROV1 ovarian): > 100 µM | TGI (K-562 leukemia): > 100 µM | TGI (KM12 colon): > 100 µM | TGI (KM20L2 colon): > 100 µM | TGI (LOX IMVI melanoma): > 100 µM | TGI (LXFL 529 NSCLC): > 100 µM | TGI (M14 melanoma): > 100 µM | TGI (M19-MEL melanoma): > 100 µM | TGI (MALME-3M melanoma): > 100 µM | TGI (MOLT-4 leukemia): > 100 µM | TGI (NCI-H226 lung): > 100 µM | TGI (NCI-H23 lung): > 100 µM | TGI (NCI-H460 lung): > 100 µM | TGI (NCI-H522 lung): 57.8 µM | TGI (OVCAR-3 ovarian): > 100 µM | TGI (OVCAR-4 ovarian): > 100 µM | TGI (OVCAR-5 ovarian): > 100 µM | TGI (OVCAR-8 ovarian): > 100 µM | TGI (RPMI-8226 leukemia): > 100 µM | TGI (RXF 393 renal): > 100 µM | TGI (SF-268 CNS): > 100 µM | TGI (SF-295 CNS): > 100 µM | TGI (SF-539 CNS): > 100 µM | TGI (SK-MEL-2 melanoma): > 100 µM | TGI (SK-MEL-28 melanoma): > 100 µM | TGI (SK-MEL-5 melanoma): > 100 µM | TGI (SK-OV-3 ovarian): > 100 µM | TGI (SN12C renal): > 100 µM | TGI (SNB-19 CNS): > 100 µM | TGI (SNB-78 CNS): > 100 µM | TGI (SW-620 colon): > 100 µM | TGI (TK-10 renal): > 100 µM | TGI (U251 CNS): > 100 µM | TGI (UACC-257 melanoma): 14.2 µM | TGI (UACC-62 melanoma): > 100 µM | TGI (UO-31 renal): 28.1 µM | TGI (XF 498 CNS): > 100 µM

Cc1ccc(/C=N/NS(=O)(=O)c2ccccc2)c(C)c1
TGI (786-0 renal): > 100 µM | TGI (A498 renal): > 100 µM | TGI (A549 NSCLC): > 100 µM | TGI (ACHN renal): > 100 µM | TGI (CAKI-1 renal): > 100 µM | TGI (CCRF-CEM leukemia): > 100 µM | TGI (COLO 205 colon): > 100 µM | TGI (DLD-1 colon): > 100 µM | TGI (DMS 114 small cell lung): > 100 µM | TGI (DMS 273 small cell lung): > 100 µM | TGI (EKVX NSCLC): > 100 µM | TGI (HCC-2998 colon): > 100 µM | TGI (HCT-116 colon): > 100 µM | TGI (HCT-15 colon): > 100 µM | TGI (HL-60(TB) leukemia): > 100 µM | TGI (HOP-18 NSCLC): > 100 µM | TGI (HOP-62 NSCLC): > 100 µM | TGI (HOP-92 NSCLC): > 100 µM | TGI (HT29 colon): > 100 µM | TGI (IGROV1 ovarian): > 100 µM | TGI (K-562 leukemia): > 100 µM | TGI (KM12 colon): > 100 µM | TGI (KM20L2 colon): > 100 µM | TGI (LOX IMVI melanoma): > 100 µM | TGI (LXFL 529 NSCLC): > 100 µM | TGI (M14 melanoma): > 100 µM | TGI (M19-MEL melanoma): > 100 µM | TGI (MALME-3M melanoma): > 100 µM | TGI (MOLT-4 leukemia): > 100 µM | TGI (NCI-H226 lung): > 100 µM | TGI (NCI-H23 lung): > 100 µM | TGI (NCI-H460 lung): > 100 µM | TGI (OVCAR-3 ovarian): > 100 µM | TGI (OVCAR-4 ovarian): > 100 µM | TGI (OVCAR-5 ovarian): > 100 µM | TGI (OVCAR-8 ovarian): > 100 µM | TGI (RPMI-8226 leukemia): > 100 µM | TGI (RXF 393 renal): > 100 µM | TGI (RXF-631 renal): > 100 µM | TGI (SF-268 CNS): > 100 µM | TGI (SF-295 CNS): > 100 µM | TGI (SF-539 CNS): > 100 µM | TGI (SK-MEL-2 melanoma): > 100 µM | TGI (SK-MEL-28 melanoma): > 100 µM | TGI (SK-MEL-5 melanoma): > 100 µM | TGI (SK-OV-3 ovarian): > 100 µM | TGI (SN12C renal): > 100 µM | TGI (SNB-75 CNS): > 100 µM | TGI (SNB-78 CNS): > 100 µM | TGI (SR leukemia): > 100 µM | TGI (SW-620 colon): > 100 µM | TGI (TK-10 renal): > 100 µM | TGI (U251 CNS): > 100 µM | TGI (UACC-257 melanoma): > 100 µM | TGI (UACC-62 melanoma): > 100 µM | TGI (UO-31 renal): > 100 µM | TGI (XF 498 CNS): > 100 µM

[Cl-].[Fe+2].c1ccc(-c2ccnc3c2ccc2c(-c4ccccc4)ccnc23)cc1.c1ccc(-c2ccnc3c2ccc2c(-c4ccccc4)ccnc23)cc1.c1ccc(-c2ccnc3c2ccc2c(-c4ccccc4)ccnc23)cc1
TGI (A498 renal): 0.39 µM | TGI (K-562 leukemia): 0.139 µM | TGI (RXF-631 renal): > 100 µM | TGI (SNB-78 CNS): > 100 µM

O=S1(=O)c2ccccc2N=C(c2ccccc2Cl)CC1c1ccc(F)cc1 (stereo unspecified)
TGI (786-0 renal): 30.5 µM | TGI (A498 renal): 35.7 µM | TGI (A549 NSCLC): 47.4 µM | TGI (ACHN renal): 32.6 µM | TGI (CAKI-1 renal): 34.3 µM | TGI (CCRF-CEM leukemia): 50.5 µM | TGI (COLO 205 colon): 40.3 µM | TGI (DLD-1 colon): 28.6 µM | TGI (DMS 114 small cell lung): 41.1 µM | TGI (DMS 273 small cell lung): 45.3 µM | TGI (EKVX NSCLC): 36.2 µM | TGI (HCC-2998 colon): 28.4 µM | TGI (HCT-116 colon): 22.9 µM | TGI (HCT-15 colon): 35.6 µM | TGI (HL-60(TB) leukemia): 45.4 µM | TGI (HOP-18 NSCLC): 29.3 µM | TGI (HOP-92 NSCLC): 34.6 µM | TGI (IGROV1 ovarian): 37.4 µM | TGI (K-562 leukemia): 34.6 µM | TGI (KM12 colon): 31.8 µM | TGI (KM20L2 colon): 37.4 µM | TGI (LOX IMVI melanoma): 34.2 µM | TGI (LXFL 529 NSCLC): 31.6 µM | TGI (M14 melanoma): 35.3 µM | TGI (M19-MEL melanoma): 31.5 µM | TGI (MALME-3M melanoma): 36.8 µM | TGI (MOLT-4 leukemia): 51.7 µM | TGI (NCI-H23 lung): 32.2 µM | TGI (NCI-H460 lung): 34.6 µM | TGI (NCI-H522 lung): 26.9 µM | TGI (OVCAR-3 ovarian): 27.4 µM | TGI (OVCAR-4 ovarian): 32.8 µM | TGI (OVCAR-5 ovarian): 30.7 µM | TGI (OVCAR-8 ovarian): 48.3 µM | TGI (RPMI-8226 leukemia): 14.4 µM | TGI (RXF 393 renal): 20.1 µM | TGI (SF-268 CNS): 47.4 µM | TGI (SF-295 CNS): 34.4 µM | TGI (SF-539 CNS): 35.7 µM | TGI (SK-MEL-2 melanoma): 35.9 µM | TGI (SK-MEL-28 melanoma): 32.7 µM | TGI (SK-MEL-5 melanoma): 31.4 µM | TGI (SK-OV-3 ovarian): 89 µM | TGI (SN12C renal): 29.1 µM | TGI (SNB-19 CNS): 31.4 µM | TGI (SNB-75 CNS): 47.8 µM | TGI (SNB-78 CNS): 40.3 µM | TGI (SW-620 colon): 31.5 µM | TGI (TK-10 renal): 50.4 µM | TGI (U251 CNS): 28.4 µM | TGI (UACC-257 melanoma): 24.7 µM | TGI (UACC-62 melanoma): 32 µM | TGI (UO-31 renal): 28.6 µM | TGI (XF 498 CNS): 29 µM
